{"source": "patent US20080039629A1", "about": "“Benzothniazole compositions and their use as ubiquition ligation inhibitors” (RIGEL PHARMACEUTICALS, INC., priority 2003, published 2008)", "data": [{"biological_target": "T1, E1 and His-E2 Ubch10 (Homo sapiens, UniProt P22314)", "T1 construct": "host or cells: E. coli (His-Ubch10); Sf9 insect cells (E1)", "T1 sequence (P22314 1-1058)": "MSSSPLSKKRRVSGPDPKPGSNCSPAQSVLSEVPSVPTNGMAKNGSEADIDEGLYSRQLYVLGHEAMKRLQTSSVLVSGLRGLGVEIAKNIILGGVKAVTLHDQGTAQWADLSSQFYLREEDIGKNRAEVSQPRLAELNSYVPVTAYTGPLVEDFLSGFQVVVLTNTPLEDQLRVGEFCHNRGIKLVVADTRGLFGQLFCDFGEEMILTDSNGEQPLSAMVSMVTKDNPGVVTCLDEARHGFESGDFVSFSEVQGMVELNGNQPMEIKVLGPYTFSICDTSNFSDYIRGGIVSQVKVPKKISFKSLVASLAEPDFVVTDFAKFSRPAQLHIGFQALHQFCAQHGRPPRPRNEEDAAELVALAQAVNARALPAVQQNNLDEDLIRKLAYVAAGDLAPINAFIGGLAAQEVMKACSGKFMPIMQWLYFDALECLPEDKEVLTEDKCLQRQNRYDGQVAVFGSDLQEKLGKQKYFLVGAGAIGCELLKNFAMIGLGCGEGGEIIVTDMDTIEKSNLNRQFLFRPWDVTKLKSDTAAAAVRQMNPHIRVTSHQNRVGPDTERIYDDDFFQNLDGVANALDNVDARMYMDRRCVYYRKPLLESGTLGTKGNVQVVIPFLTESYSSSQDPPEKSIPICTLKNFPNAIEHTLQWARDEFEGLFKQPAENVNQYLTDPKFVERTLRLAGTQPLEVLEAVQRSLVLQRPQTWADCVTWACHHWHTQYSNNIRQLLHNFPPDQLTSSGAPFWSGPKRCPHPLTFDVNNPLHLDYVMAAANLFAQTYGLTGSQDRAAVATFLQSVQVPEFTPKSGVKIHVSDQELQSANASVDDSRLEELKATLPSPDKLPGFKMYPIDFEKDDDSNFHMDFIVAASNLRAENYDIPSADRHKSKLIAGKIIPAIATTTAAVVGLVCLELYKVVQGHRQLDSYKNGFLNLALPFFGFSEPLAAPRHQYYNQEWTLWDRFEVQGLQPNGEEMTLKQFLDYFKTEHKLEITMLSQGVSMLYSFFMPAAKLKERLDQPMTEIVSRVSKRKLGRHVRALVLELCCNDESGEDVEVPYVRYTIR", "assay": "E1 to E2 transfer assay, His-E2 Ubch10, 1.0 μM ATP (low ATP)", "assay_type": "biochemical", "settings": "Table 5, ATP inhibition properties; inhibition measured using IC50 values", "excerpt": "Biological assays for determining the transfer of ubiquitin from the E1 activating agent to the E2 conjugating agent are described in U.S. patent application Ser. Nos. 09/542,497 and 09/826,312 as well as in the PCT Application WO 01/75145, all of which are incorporated by reference in their entirety. The following assay example illustrates one way by which the ubiquitin ligase inhibitory activity of the compounds of the invention can be assayed. This assay example is not meant to limit in any way the use of the compounds of the invention as ubiquitin ligase inhibitors.\nThe attachment of a ubiquitin moiety to the E2 conjugating agent was assayed using Flag-ubiquitin that was purified from E. coli, E2 Ubch10 that was purified as a His-Ubch10 from E. coli, and E1 that was purified from Sf9 insect cells (Affiniti Research Products, Exeter, U.K.). The wells of a Nickel-substrate 96-well plate (Pierce Chemical) were blocked with 100 μl of 1% casein/phosphate buffered saline (PBS) for 1 hour at room temperature. The blocked Nickel-substrate plate was then washed three times with 200 μl of PBST (0.1% Tween-20 in PBS). Subsequently, Flag-ubiquitin reaction solution was added to each well so that the final concentration was 62.5 mM Tris pH 7.5, […], 0.75 mM DTT, 1.0 μM ATP (low ATP), and 100 ng Flag-ubiquitin. The final reaction solution volume was fixed to 80 μl with Millipore-filtered water. To this was added the following: a ubiquitin agent inhibitor in 10 μl of DMSO, 10 μl of E1 and His-E2 Ubch10 in 20 mM Tris buffer, pH 7.5, and 5% glycerol so that there was 10 ng/well of E1 and 20 ng/well of His-E2 Ubch10. The reaction was then allowed to proceed at room temperature for 1 hour.\nAfter 1 hour, the wells were washed three times with 200 μl of PBST and the amount of E2-ubiquitin complex was measured. For measuring the amount of the E2-ubiquitin complex, 100 μl of Mouse anti-flag diluted 1:10,000 (Sigma Aldrich Fluka Chemicals, St. Louis, Mo.) and anti-mouse HRP diluted 1:15,000 (Jackson Immunoresearch labs, West Grove, Pa.) in PBST were added to each well and allowed to incubate at room temperature for another hour. The wells were then washed three times with 200 μl of PBST and 100 μl of luminol substrate (⅕ dilution) was added. The luminescence of each well was then measured using a […] to calculate the amount of E2-ubiquitin complex. This procedure was repeated using His-E2 Ubch5C instead of His-E2 Ubch10.\nThe table below illustrates the inhibitory properties of the pharmaceutical compostions of the invention comprising the compounds listed in the table using the assays described above. Inhibition was measured using IC50 values.", "values": [{"smiles": "COc1ccc2nc(NC(=O)C(C)(C)C)sc2c1", "note": "[Compound 48, N-(6-methoxybenzo[d]thiazol-2-yl)pivalamide]", "UBC10": "++ (++ indicates inhibition at 50 μM or or less)"}, {"smiles": "CCOC(=O)c1ccc(NC(=O)Nc2nc3ccc(OC)cc3s2)cc1", "note": "[Compound 126]", "UBC10": "−− (−− indicates marginal or no inhibition detected with this assay)"}, {"smiles": "CCCC1CCC(C(=O)Nc2nc3ccc(OC)cc3s2)CC1", "note": "(centres unmarked) [Compound 45, N-(6-methoxybenzo[d]thiazol-2-yl)-4-propylcyclohexanecarboxamide]", "UBC10": "++ (++ indicates inhibition at 50 μM or or less)"}, {"smiles": "COc1ccc2nc(NC(=O)c3ccc(NC(C)=O)cc3)sc2n1", "note": "[Compound 149, 4-acetamido-N-(5-methoxythiazolo[5,4-b]pyridin-2-yl)benzamide]", "UBC10": "++ (++ indicates inhibition at 50 μM or or less)"}, {"smiles": "COc1ccc2nc(NC(=O)c3ccc4c(c3)OCCO4)sc2c1", "note": "[Compound 29, N-(6-methoxybenzo[d]thiazol-2-yl)-2,3-dihydrobenzo[b][1,4]dioxine-6-carboxamide]", "UBC10": "++ (++ indicates inhibition at 50 μM or or less)"}, {"smiles": "O=C(Nc1nc2ccccc2s1)[C@H]1CCN1", "note": "[Compound 224, (R)-N-(benzo[d]thiazol-2-yl)azetidine-2-carboxamide]", "UBC10": "−− (−− indicates marginal or no inhibition detected with this assay)"}, {"smiles": "Cc1ccc(C(=O)Nc2nc3c(C)cccc3s2)cc1C", "note": "[Compound 76, 3,4-dimethyl-N-(4-methylbenzo[d]thiazol-2-yl)benzamide]", "UBC10": "−− (−− indicates marginal or no inhibition detected with this assay)"}, {"smiles": "COc1ccc2nc(NC(=O)Nc3cccc(F)c3)sc2c1", "note": "[Compound 100, 1-(3-fluorophenyl)-3-(6-methoxybenzo[d]thiazol-2-yl)urea]", "UBC10": "++ (++ indicates inhibition at 50 μM or or less)"}, {"smiles": "Cc1ccc(C(=O)Nc2nc3ccc(Cl)cc3s2)cc1", "note": "[Compound 70, N-(6-chlorobenzo[d]thiazol-2-yl)-4-methylbenzamide]", "UBC10": "−− (−− indicates marginal or no inhibition detected with this assay)"}, {"smiles": "COc1ccc2nc(NC(=O)c3ccc(Cl)c(Cl)c3)sc2c1", "note": "[Compound 95, 3,4-dichloro-N-(6-methoxybenzo[d]thiazol-2-yl)benzamide]", "UBC10": "++ (++ indicates inhibition at 50 μM or or less)"}, {"smiles": "COc1ccc2nc(NC(=O)c3sccc3C)sc2c1", "note": "[Compound 103, N-(6-methoxybenzo[d]thiazol-2-yl)-3-methylthiophene-2-carboxamide]", "UBC10": "++ (++ indicates inhibition at 50 μM or or less)"}, {"smiles": "CCc1ccc(C(=O)Nc2nc3ccc(C)cc3s2)cc1", "note": "[Compound 78, 4-ethyl-N-(6-methylbenzo[d]thiazol-2-yl)benzamide]", "UBC10": "−− (−− indicates marginal or no inhibition detected with this assay)"}, {"smiles": "CCCCCCc1ccc(C(=O)Nc2nc3ccc(OC)cc3s2)cc1", "note": "[Compound 83, 4-hexyl-N-(6-methoxybenzo[d]thiazol-2-yl)benzamide]", "UBC10": "−− (−− indicates marginal or no inhibition detected with this assay)"}, {"smiles": "CN(C)c1ccccc1C(=O)Nc1nc2ccccc2s1", "note": "[Compound 223, N-(benzo[d]thiazol-2-yl)-2-(dimethylamino)benzamide]", "UBC10": "−− (−− indicates marginal or no inhibition detected with this assay)"}, {"smiles": "COc1ccc2nc(NC(=O)Nc3cccc(Cl)c3Cl)sc2c1", "note": "[Compound 124, 1-(2,3-dichlorophenyl)-3-(6-methoxybenzo[d]thiazol-2-yl)urea]", "UBC10": "−− (−− indicates marginal or no inhibition detected with this assay)"}, {"smiles": "COc1ccc2nc(NC(=O)c3ccc(C)cc3)sc2c1", "note": "[Compound 21, N-(6-methoxybenzo[d]thiazol-2-yl)-4-methylbenzamide]", "UBC10": "++ (++ indicates inhibition at 50 μM or or less)"}, {"smiles": "COc1ccc2nc(NC(=O)c3ccco3)sc2n1", "note": "[Compound 153, N-(5-methoxythiazolo[5,4-b]pyridin-2-yl)furan-2-carboxamide]", "UBC10": "++ (++ indicates inhibition at 50 μM or or less)"}, {"smiles": "COc1ccc2nc(NC(=O)c3ccccc3OC)sc2c1", "note": "[Compound 61, 2-methoxy-N-(6-methoxybenzo[d]thiazol-2-yl)benzamide]", "UBC10": "−− (−− indicates marginal or no inhibition detected with this assay)"}, {"smiles": "COc1ccc2nc(NC(=O)C3Cc4ccccc4N3)sc2c1", "note": "(centres unmarked) [Compound 38, N-(6-methoxybenzo[d]thiazol-2-yl)indoline-2-carboxamide]", "UBC10": "++ (++ indicates inhibition at 50 μM or or less)"}, {"smiles": "CCc1ccc(C(=O)Nc2nc3ccc(OC)cc3s2)cc1", "note": "[Compound 77, 4-ethyl-N-(6-methyoxybenzo[d]thiazol-2-yl)benzamide]", "UBC10": "++ (++ indicates inhibition at 50 μM or or less)"}, {"smiles": "Nc1ccc(C(=O)Nc2nc3ccccc3s2)cc1", "note": "[Compound 86, 4-amino-N-(benzo[d]thiazol-2-yl)benzamide]", "UBC10": "−− (−− indicates marginal or no inhibition detected with this assay)"}, {"smiles": "COc1ccc2nc(NC(=O)c3cccnc3)sc2c1", "note": "[Compound 53, N-(6-methoxybenzo[d]thiazol-2-yl)nicotinamide]", "UBC10": "++ (++ indicates inhibition at 50 μM or or less)"}, {"smiles": "CCCCc1ccc(C(=O)Nc2nc3ccc(OC)cc3s2)cc1", "note": "[Compound 82, 4-butyl-N-(6-methoxybenzo[d]thiazol-2-yl)benzamide]", "UBC10": "++ (++ indicates inhibition at 50 μM or or less)"}, {"smiles": "O=C(Nc1nc2ccccc2s1)c1cccc(I)c1", "note": "[Compound 195, N-(benzo[d]thiazol-2-yl)-3-iodobenzamide]", "UBC10": "++ (++ indicates inhibition at 50 μM or or less)"}, {"smiles": "CCOC(=O)c1ccc(NC(=O)Nc2nc3ccc(OCC)cc3s2)cc1", "note": "[Compound 136, ethyl 4-(3-(6-ethoxybenzo[d]thiazol-2-yl)ureido)benzoate]", "UBC10": "−− (−− indicates marginal or no inhibition detected with this assay)"}, {"smiles": "COc1ccc2nc(NC(=O)c3ccc(C)c([N+](=O)[O-])c3)sc2c1", "note": "[Compound 23, N-(6-methoxybenzo[d]thiazol-2-yl)-4-methyl-3-nitrobenzamide]", "UBC10": "−− (−− indicates marginal or no inhibition detected with this assay)"}, {"smiles": "O=C(Nc1nc2ccccc2s1)C1CCCCC1", "note": "[Compound 205, N-(benzo[d]thiazol-2-yl)cyclohexanecarboxamide]", "UBC10": "−− (−− indicates marginal or no inhibition detected with this assay)"}, {"smiles": "COc1ccc2nc(NC(=O)c3cccc(Cl)c3)sc2n1", "note": "[Compound 142, 3-chloro-N-(5-methoxythiazolo[5,4-b]pyridin-2-yl)benzamide]", "UBC10": "++ (++ indicates inhibition at 50 μM or or less)"}, {"smiles": "O=C(Nc1nc2ccccc2s1)c1ccccc1F", "note": "[Compound 164, N-(benzo[d]thiazol-2-yl)-2-fluorobenzamide]", "UBC10": "−− (−− indicates marginal or no inhibition detected with this assay)"}]}]}
